Assay results from patent US7956074B2, “Aryl-isoxazolo-4-yl-oxadiazole derivatives” (Hoffman-La Roche Inc., priority 2005, dated 2011).

target: T1, GABA A receptor α5β3γ2 (Homo sapiens, UniProt P18507+P31644); test: [3H]flumazenil competition binding, human GABA A α5β3γ2; conditions: competition for [3H]flumazenil (0.5 nM) binding, HEK293 cells expressing human (transiently transfected) α5β3γ2; means of two determinations; read-out: Ki[nM] hα5
T1 construct: expressed in transfected cells; host or cells: HEK293 cells, transiently transfected; membranes prepared
Experimental: Membrane Preparation and Binding Assay
The affinity of compounds at GABA A receptor subtypes was measured by competition for [3H]flumazenil (85 Ci/mmol; Roche) binding to HEK293 cells expressing rat (stably transfected) or human (transiently transfected) receptors of composition
Cell pellets were suspended in Krebs-tris buffer (4.8 mM KCl, 1.2 mM CaCl2, 1.2 mM MgCl2, 120 mM NaCl, 15 mM Tris; pH 7.5; binding assay buffer), homogenized by polytron for ca. 20 sec on ice and centrifuged for 60 min at 4° C. (50000 g; Sorvall, rotor: SM24=20000 rpm). The cell pellets were resuspended in Krebs-tris buffer and homogenized by polytron for ca. 15 sec on ice. Protein was measured (Bradford method, Bio-Rad) and aliquots of 1 mL were prepared and stored at −80° C.
Assays were incubated to equilibrium for 1 hour at 4° C. and harvested onto GF/C uni-filters (Packard) by filtration using a Packard harvester and washing with ice-cold wash buffer (50 mM Tris; pH 7.5). After drying, filter-retained radioactivity was detected by liquid scintillation counting. Ki values were calculated using Excel-Fit (Microsoft) and are the means of two determinations.

Row | Ki | SMILES
1 | 22.9 nM | Cc1onc(-c2ccccc2)c1-c1nnc(-c2ccc(N3CCSCC3)cc2)o1 [Example 37, 4-{4-[5-(5-Methyl-3-phenyl-isoxazol-4-yl)-[1,3,4]oxadiazol-2-yl]-phenyl}-thiomorpholine]
2 | 19.7 nM | Cc1onc(-c2ccccc2)c1-c1nnc(-c2ccc(N3CCS(=O)(=O)CC3)cc2)o1 [Example 38, 4-{4-[5-(5-Methyl-3-phenyl-isoxazol-4-yl)-[1,3,4]oxadiazol-2-yl]-phenyl}-thiomorpholine 1,1-dioxide]
3 | 16.7 nM | Cc1onc(-c2ccccc2)c1-c1nnc(-c2ccc(N3CC[S+]([O-])CC3)cc2)o1 [Example 39, 4-{4-[5-(5-Methyl-3-phenyl-isoxazol-4-yl)-[1,3,4]oxadiazol-2-yl]-phenyl}-thiomorpholine 1-oxide]
4 | 179 nM | Cc1onc(-c2ccccc2)c1-c1nnc(-c2ccncc2)o1 [Example 40, 4-[5-(5-Methyl-3-phenyl-isoxazol-4-yl)-[1,3,4]oxadiazol-2-yl]-pyridine]
5 | 32.5 nM | Cc1onc(-c2ccccc2)c1-c1nnc(-c2ccc(N3C[C@@H](C)O[C@@H](C)C3)cc2)o1 [Example 41, rac-(2S,6R)-2,6-Dimethyl-4-{4-[5-(5-methyl-3-phenyl-isoxazol-4-yl)-[1,3,4]oxadiazol-2-yl]-phenyl}-morpholine]
6 | 141 nM | Cc1onc(-c2ccccc2)c1-c1nnc(-c2ccccc2OC(F)F)o1 [Example 42, 2-(2-Difluoromethoxy-phenyl)-5-(5-methyl-3-phenyl-isoxazol-4-yl)-[1,3,4]oxadiazole]
7 | 131 nM | Cc1onc(-c2ccccc2)c1-c1nnc(-c2ccccc2OC(F)(F)F)o1 [Example 43, 2-(5-Methyl-3-phenyl-isoxazol-4-yl)-5-(2-trifluoromethoxy-phenyl)-[1,3,4]oxadiazole]
8 | 88.9 nM | Cc1onc(-c2ccccc2)c1-c1nnc(-c2ccnc3ccccc23)o1 [Example 44, 4-[5-(5-Methyl-3-phenyl-isoxazol-4-yl)-[1,3,4]oxadiazol-2-yl]-quinoline]
9 | 100 nM | Cc1onc(-c2ccccc2)c1-c1nnc(-c2cccc(F)c2)o1 [Example 45, 2-(3-Fluoro-phenyl)-5-(5-methyl-3-phenyl-isoxazol-4-yl)-[1,3,4]oxadiazole]
10 | 255 nM | Cc1onc(-c2ccccc2)c1-c1nnc(-c2ccccc2OCc2ccccc2)o1 [Example 46, 2-(2-Benzyloxy-phenyl)-5-(5-methyl-3-phenyl-isoxazol-4-yl)-[1,3,4]oxadiazole]
11 | 46.9 nM | Cc1onc(-c2ccccc2)c1-c1nnc(-c2ccc(N3CCCCC3)cc2)o1 [Example 47, 1-{4-[5-(5-Methyl-3-phenyl-isoxazol-4-yl)-[1,3,4]oxadiazol-2-yl]-phenyl}-piperidine]
12 | 38.9 nM | Cc1onc(-c2ccccc2)c1-c1nnc(-c2ccc(N)nc2)o1 [Example 48, 5-[5-(5-Methyl-3-phenyl-isoxazol-4-yl)-[1,3,4]oxadiazol-2-yl]-pyridin-2-ylamine]
13 | 39.7 nM | COc1cc(C(F)(F)F)ccc1-c1nnc(-c2c(-c3ccccc3)noc2C)o1 [Example 49, 2-(2-Methoxy-4-trifluoromethyl-phenyl)-5-(5-methyl-3-phenyl-isoxazol-4-yl)-[1,3,4]oxadiazole]
14 | 250 nM | Cc1onc(-c2ccccc2)c1-c1nnc(-c2ccc(C(F)(F)F)cc2)o1 [Example 50, 2-(5-Methyl-3-phenyl-isoxazol-4-yl)-5-(4-trifluoromethyl-phenyl)-[1,3,4]oxadiazole]
15 | 128 nM | Cc1onc(-c2ccccc2)c1-c1nnc(-c2ccc3c(c2)n(C)c(=O)n3C)o1 [Example 51, 1,3-Dimethyl-5-[5-(5-methyl-3-phenyl-isoxazol-4-yl)-[1,3,4]oxadiazol-2-yl]-1,3-dihydro-benzoimidazol-2-one]
16 | 58.9 nM | Cc1onc(-c2ccccc2)c1-c1nnc(-c2ccc(OC(F)F)cc2)o1 [Example 52, 2-(4-Difluoromethoxy-phenyl)-5-(5-methyl-3-phenyl-isoxazol-4-yl)-[1,3,4]oxadiazole]
